From paper PMC6900016, “Synthesis of Indomorphan Pseudo‐Natural Product Inhibitors of Glucose Transporters GLUT‐1 and ‐3” (Angewandte Chemie (International Ed. in English), 2019) come the findings set out here.

Molecules are shown by their SMILES.

One assay addresses T1, GLUT-3 (Homo sapiens, UniProt P11169).
T1 construct: gene SLC2A3
Nature of the assay: CETSA/thermal proteome profiling in SW480 lysate (ΔTm […] °C by MS, […] °C by immunoblot, […]); 2DG uptake IC50 in DLD-1 GLUT1(-/-) cells; shift on GLUT-3 overexpression in CHO. The format is cell-based.

The subject of another assay is HCT15. As to the kind of experiment: cells. Details: Cell growth inhibition, sulforhodamine B total protein staining. As to conditions: Homo sapiens, HCT-15; 72 h growth; read-out: Cell growth inhibition IC50/µM. In short, it runs like this:
(§1)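 72 h exposure of a 94-cell-line panel to Glupin; growth measured by sulforhodamine B total-protein staining after TCA fixation (10% adherent, 50% suspension/semi-adherent, 1 h at 4 °C). IC50 derived from growth inhibition.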

A further assay relates to TE671. Nature of the assay: cells. Also noted: Cell growth inhibition, sulforhodamine B total protein staining. As to conditions: Homo sapiens, TE-671; 72 h growth; read-out: Cell growth inhibition IC50/µM. In a few lines: as §1
Assay [1] relates to CHO. Nature of the assay: cells. The conditions noted are these: Cricetulus griseus, 0.5 h, empty vector. Details: 2-deoxyglucose uptake inhibition, resazurin/diaphorase, mock-transfected CHO cells. Here is the method:
Resazurin-based 2DG uptake assay (low throughput) The 2DG uptake assay was performed by the Yamamoto et al. procedure.[6] 40000 cells/well were seeded in black CellBIND 96-well plates with clear bottom (Corning) and allowed to attach overnight. Cells were washed three times with KRB buffer (20 mM Hepes, 5 mM KH2PO4, 1 mM MgCl2, 1 mM CaCl2, 136 mM NaCl, 4.7 mM KCl, pH 7.4) containing 0.1% BSA and then incubated with the compounds or vehicle control and 1 mM 2DG for 30 min as described earlier. After washing three times with KRB buffer, the plates were sealed with adhesive aluminum foil and cells were lysed with 60 µL 1% CHAPS in 0.06 M HCl. Subsequently, plates were heated using microplate heater for 15 min at 65°C. After cooling down to room temperature, 20 µL 0.5 M Tris were added to neutralize the acid, before 80 µL of detection enzyme mixture were added. The detection enzyme solution contained 25 µM resazurin sodium salt (Acros), 6 U/mL glucose-6-phosphate dehydrogenase (G8404; Sigma Aldrich), 0.2 U/mL diaphorase from Chlostridium kluyveri (D5540; Sigma Aldrich) and 0.1mM NADP+ (Applichem) in 0.125 mM Tris, pH 8.4 with 0.1% BSA. After incubation for 2 h at room temperature, fluorescence intensity was measured at ex/em 530/590 nm using a Tecan M200 plate reader. Data were normalized to the respective DMSO Transient overexpression of GLUT-1-4 in CHO cells and 2DG assay[7] […]

Assay [2] relates to T2, CHO.
T2 construct: transiently transfected with plasmid
Nature of the assay: cells. Details: 2DG uptake in transfected CHO cells, resazurin/diaphorase fluorescence. The conditions noted are these: Cricetulus griseus, 0.5 h. On the procedure: Transient overexpression of GLUT-1-4 in CHO cells and 2DG assay[7] 1x10^6 CHO cells were seeded 10 cm cell culture plates. After overnight incubation, cells were transfected with the different using Lipofectamine 3000 according to the supplier's instructions. Briefly, DNA-lipid SUPPORTING INFORMATION 264 complexes (100 µg plasmid DNA, DNA:lipid ratio 1:2) were prepared in OptiMEM and then added to the cells. In the case of GLUT-4-transfected cells, Insulin (100 µg/mL) was added to the transfection medium. After incubation for 48 h cells were either reseeded (40,000 cell/well) in 96-well plates for monitoring glucose uptake or cells were directly lysed and protein expression was subsequently analysed by means of immunoblotting. In the case of GLUT-4 transfected cells, Insulin (100 µg/mL) was added to the culture medium medium. The 2DG assay was performed as described above (low throughput resazurin-based assay). In the case of GLUT-4 transfected cells, Insulin (100 µg/mL) was added to the buffer. Resazurin-based 2DG uptake assay (low throughput) The 2DG uptake assay was performed by the Yamamoto et al. procedure.[6] 40000 cells/well were seeded in black CellBIND 96-well plates with clear bottom (Corning) and allowed to attach overnight. Cells were washed three times with KRB buffer (20 mM Hepes, 5 mM KH2PO4, 1 mM MgCl2, 1 mM CaCl2, 136 mM NaCl, 4.7 mM KCl, pH 7.4) containing 0.1% BSA and then incubated with the compounds or vehicle control and 1 mM 2DG for 30 min as described earlier. After washing three times with KRB buffer, the plates were sealed with adhesive aluminum foil and cells were lysed with 60 µL 1% CHAPS in 0.06 M HCl. Subsequently, plates were heated using microplate heater for 15 min at 65°C. After cooling down to room temperature, 20 µL 0.5 M Tris were added to neutralize the acid, before 80 µL of detection enzyme mixture were added. The detection enzyme solution contained 25 µM resazurin sodium salt (Acros), 6 U/mL glucose-6-phosphate dehydrogenase (G8404; Sigma Aldrich), 0.2 U/mL diaphorase from Chlostridium kluyveri (D5540; Sigma Aldrich) and 0.1mM NADP+ (Applichem) in 0.125 mM Tris, pH 8.4 with 0.1% BSA. After incubation for 2 h at room temperature, fluorescence intensity was measured at ex/em 530/590 nm using a Tecan M200 plate reader. Data were normalized to the respective DMSO

T1 sequence (P11169 whole entry): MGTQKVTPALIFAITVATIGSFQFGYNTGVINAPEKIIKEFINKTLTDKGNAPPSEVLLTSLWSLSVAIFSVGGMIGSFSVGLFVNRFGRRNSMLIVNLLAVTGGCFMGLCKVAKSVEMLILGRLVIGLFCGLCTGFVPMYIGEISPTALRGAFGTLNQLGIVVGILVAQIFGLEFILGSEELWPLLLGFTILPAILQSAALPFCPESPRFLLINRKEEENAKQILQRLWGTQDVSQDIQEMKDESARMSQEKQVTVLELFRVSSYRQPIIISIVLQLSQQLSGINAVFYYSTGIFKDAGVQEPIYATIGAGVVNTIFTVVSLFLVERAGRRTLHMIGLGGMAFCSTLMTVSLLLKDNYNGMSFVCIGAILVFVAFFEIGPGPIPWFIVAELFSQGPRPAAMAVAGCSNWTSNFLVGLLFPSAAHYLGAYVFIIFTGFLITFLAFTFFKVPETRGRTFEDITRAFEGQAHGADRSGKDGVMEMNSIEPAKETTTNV

In the case of `CCOC(=O)Cn1c2c(c3ccccc31)C[C@@H]1C[C@H]2C(OC)CN1C(=O)c1cccnc1SC` (single isomer, unassigned; (+)) [(+)-5a, Glupin], the IC50 at GLUT-3 worked out at 11.4 ± 1.6 nM; in the assay on HCT15, 0.407 µM; in the assay with TE671 it was 0.299 µM; with CHO [1] (pCMV-SPORT6, 2DG uptake) it was 19.1 ± 2.9 nM; with CHO [1] (pTCN, 2DG uptake), 19.2 ± 2.1 nM; in the assay on CHO [2] (pCMV-SPORT6-GLUT3), 68 ± 7.2 nM. In addition, the IC50 with CHO [2] (pTCN-GLUT1) was 162 ± 14 nM; in the assay with CHO [2] (pTCN-GLUT2) it was 19.7 ± 2.4 nM; in the assay on CHO [2] (pTCN-GLUT4), 18.9 ± 3.2 nM.
